According to PMC3593249 (Biochemical pharmacology, 2013):
Several values for one entry are separate records, joined by “and”; a condition that tells them apart may be missing. Identical values can stand only once.

Experiments:
WT α7 nAChR [1] = molecular target: T1, WT α7 nAChR (Homo sapiens, UniProt P36544); assay: Concentration-response curves; type: cell-based; conditions: for Imax: maximal response relative to the maximal response from ACh (ACh = 1); for EC50: net charge CRC, potency for agonism, parenthetical = curve-fit error
α7 nAChR S36G mutant [2] = molecular target: T2, α7 nAChR S36G mutant (Homo sapiens, UniProt P36544, S58G); type: cell-based; conditions: for Imax: maximal response relative to the maximal response from ACh (ACh = 1); for EC50: net charge CRC, parenthetical = curve-fit error
α7 nAChR S36A mutant [3] = molecular target: T3, α7 nAChR S36A mutant (Homo sapiens, UniProt P36544, S58A); assay: Concentration-response curves; type: cell-based; conditions: for Imax: maximal response relative to the maximal response from ACh (ACh = 1); for EC50: net charge CRC, parenthetical = curve-fit error
α7 nAChR S36C mutant [4] = molecular target: T4, α7 nAChR S36C mutant (Homo sapiens, UniProt P36544, S58C); assay: Concentration-response curves; type: cell-based; conditions: for Imax: maximal response relative to the maximal response from ACh (ACh = 1); for EC50: net charge CRC, parenthetical = curve-fit error
α7 nAChR S36V mutant [5] = molecular target: T5, α7 nAChR S36V mutant (Homo sapiens, UniProt P36544, S58V); assay: Concentration-response curves; type: cell-based; conditions: for Imax: maximal response relative to the maximal response from ACh (ACh = 1); for EC50: net charge CRC, parenthetical = curve-fit error
α7 nAChR S36I mutant [6] = molecular target: T6, α7 nAChR S36I mutant (Homo sapiens, UniProt P36544, S58I); assay: Concentration-response curves; type: cell-based; conditions: for Imax: maximal response relative to the maximal response from ACh (ACh = 1); for EC50: net charge CRC, parenthetical = curve-fit error
α7 nAChR S36T mutant [7] = molecular target: T7, α7 nAChR S36T mutant (Homo sapiens, UniProt P36544, S58T); assay: Concentration-response curves; type: cell-based; conditions: for Imax: maximal response relative to the maximal response from ACh (ACh = 1); for EC50: net charge CRC, parenthetical = curve-fit error
WT α7 nAChR [8] = molecular target: T1, WT α7 nAChR; assay: Residual desensitization; type: cell-based; conditions: for IC50: read-out: IC50 (RD curve), potency for producing long-lasting desensitization, 12 s applications
α7 nAChR S36G mutant [9] = molecular target: T2, α7 nAChR S36G mutant; assay: Residual desensitization; type: cell-based; conditions: read-out: IC50 (RD curve), potency for producing long-lasting desensitization, 12 s applications
α7 nAChR S36A mutant [10] = molecular target: T3, α7 nAChR S36A mutant; assay: Residual desensitization; type: cell-based; conditions: read-out: IC50 (RD curve), potency for producing long-lasting desensitization, 12 s applications
α7 nAChR S36C mutant [11] = molecular target: T4, α7 nAChR S36C mutant; assay: Residual desensitization; type: cell-based; conditions: read-out: IC50 (RD curve), potency for producing long-lasting desensitization, 12 s applications
α7 nAChR S36V mutant [12] = molecular target: T5, α7 nAChR S36V mutant; assay: Residual desensitization; type: cell-based; conditions: read-out: IC50 (RD curve), potency for producing long-lasting desensitization, 12 s applications
α7 nAChR S36I mutant [13] = molecular target: T6, α7 nAChR S36I mutant; assay: Residual desensitization; type: cell-based; conditions: read-out: IC50 (RD curve), potency for producing long-lasting desensitization, 12 s applications
α7 nAChR S36T mutant [14] = molecular target: T7, α7 nAChR S36T mutant; assay: Residual desensitization; type: cell-based; conditions: read-out: IC50 (RD curve), potency for producing long-lasting desensitization, 12 s applications
WT α7 nAChR [15] = molecular target: T1, WT α7 nAChR; assay: Induction of Ds: 30 µM PNU-120596 applied after 5-minute drug bath; type: cell-based; conditions: for desensitized state after high-concentration incubation (PNU-120596 response): high concentration: BA 300 µM, 4MeBA 100 µM
α7 nAChR = conditions: cited from earlier work
WT α7 nAChR [16] = molecular target: T1, WT α7 nAChR; assay: 5-minute bath incubation, 1 mM ACh probe and post-control ACh applications; type: cell-based
α7 nAChR S36G mutant [17] = molecular target: T2, α7 nAChR S36G mutant; assay: as above; type: cell-based; conditions: 30 µM drug bath, 5 minutes, then 1 mM ACh probe

T6 sequence (P36544 23-502 S58I): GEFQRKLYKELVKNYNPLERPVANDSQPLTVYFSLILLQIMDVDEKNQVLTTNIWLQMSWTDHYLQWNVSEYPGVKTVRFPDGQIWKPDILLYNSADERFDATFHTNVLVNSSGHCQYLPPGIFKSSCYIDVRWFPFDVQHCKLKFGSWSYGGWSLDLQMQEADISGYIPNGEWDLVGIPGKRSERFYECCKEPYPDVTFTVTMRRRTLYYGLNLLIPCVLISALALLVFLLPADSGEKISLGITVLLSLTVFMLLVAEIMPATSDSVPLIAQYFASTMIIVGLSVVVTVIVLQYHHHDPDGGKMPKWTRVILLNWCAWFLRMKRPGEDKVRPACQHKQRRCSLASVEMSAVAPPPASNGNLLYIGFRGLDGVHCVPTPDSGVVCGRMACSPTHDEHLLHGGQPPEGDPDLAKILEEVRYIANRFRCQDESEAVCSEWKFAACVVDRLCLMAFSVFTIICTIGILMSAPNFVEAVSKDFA
T3 sequence (P36544 23-502 S58A): as the sequence (P36544 23-502 S58I) above, with I36A counted along it
T4 sequence (P36544 23-502 S58C): as the sequence (P36544 23-502 S58I) above, with I36C counted along it
T1 sequence (P36544 23-502): as the sequence (P36544 23-502 S58I) above, with I36S counted along it
T5 sequence (P36544 23-502 S58V): as the sequence (P36544 23-502 S58I) above, with I36V counted along it
T7 sequence (P36544 23-502 S58T): as the sequence (P36544 23-502 S58I) above, with I36T counted along it
T2 sequence (P36544 23-502 S58G): as the sequence (P36544 23-502 S58I) above, with I36G counted along it

SMILES | Imax (WT α7 nAChR [1]) | EC50 (WT α7 nAChR [1]) | Imax (α7 nAChR S36G mutant [2]) | EC50 (α7 nAChR S36G mutant [2]) | Imax (α7 nAChR S36A mutant [3]) | EC50 (α7 nAChR S36A mutant [3]) | Imax (α7 nAChR S36C mutant [4]) | EC50 (α7 nAChR S36C mutant [4]) | Imax (α7 nAChR S36V mutant [5]) | EC50 (α7 nAChR S36V mutant [5]) | Imax (α7 nAChR S36I mutant [6]) | EC50 (α7 nAChR S36I mutant [6]) | Imax (α7 nAChR S36T mutant [7]) | EC50 (α7 nAChR S36T mutant [7]) | IC50 (WT α7 nAChR [8]) | IC50 (α7 nAChR S36G mutant [9]) | IC50 (α7 nAChR S36A mutant [10]) | IC50 (α7 nAChR S36C mutant [11]) | IC50 (α7 nAChR S36V mutant [12]) | IC50 (α7 nAChR S36I mutant [13]) | further results
Cc1ccc(C=C2CCCN=C2c2cccnc2)cc1 [4MeBA, 3-(4-methylbenzylidene)anabaseine] | 0.14(0.01) | 30 µM and 29 µM | 0.31(0.02) | 9.5 µM | 0.19(0.04) | 7.9 µM | 0.14(0.02) | 5.5 µM | 0.15(0.04) | 3.5 µM | 0.088(0.007) | 17.6 µM | 0.19(0.02) | 34 µM | 110 µM | 51 µM | 145 µM | 52 µM | 91 µM | 153 µM | reduction of post-control ACh responses (WT α7 nAChR [8]; at concentration of greatest evoked response, approximately 300 µM): 80%; IC50 (α7 nAChR S36T mutant [14]): 450 µM; desensitized state after high-concentration incubation (PNU-120596 response) (WT α7 nAChR [15]): induced exclusively into Di
C(=C1CCCN=C1c1cccnc1)c1ccccc1 [BA, benzylidene anabaseine] | 0.31(0.01) | 40 µM and 39 µM | 0.316(0.003) | 44 µM | 0.45(0.02) | 27 µM | 0.30(0.01) | 22 µM | 0.27(0.05) | 27 µM | 0.18(0.02) | 81 µM | 0.19(0.01) | 68 µM | 270 µM | 357 µM | 91 µM | 189 µM | 217 µM | > 300 µM | IC50 (α7 nAChR S36T mutant [14]): 720 µM; desensitized state after high-concentration incubation (PNU-120596 response) (WT α7 nAChR [15]): induced exclusively into Di
COc1ccc(/C=C2\CCCN=C2c2cccnc2)c(OC)c1 [GTS-21, 3-(2,4-dimethoxybenzylidene)anabaseine] | – | – | – | – | – | – | – | – | – | – | – | – | – | – | – | – | – | – | – | – | RD production (α7 nAChR): significant amounts of RD
Oc1ccc(C=C2CCCN=C2c2cccnc2)c(O)c1 [2,4diOHBA, 3-(2,4-dihydroxybenzylidene)anabaseine] | – | – | – | – | – | – | – | – | – | – | – | – | – | – | – | – | – | – | – | – | RD production (α7 nAChR): practically none
Oc1ccc(/C=C2\CCCN=C2c2cccnc2)cc1 [4OHBA, (E)-3-(4-hydroxybenzylidene)anabaseine] | 0.385(0.006) | 6 µM and 5.5 µM | 0.89(0.06) | 0.53 µM | 0.73(0.03) | 0.57 µM | 0.63(0.02) | 0.75 µM | 0.50(0.03) | 0.25 µM | 0.46(0.03) | 2.3 µM | 0.50(0.01) | 5.9 µM | > 300 µM | 134 µM | 203 µM | 233 µM | 61 µM | > 300 µM | reduction of post-control ACh responses (WT α7 nAChR [8]; at concentrations required for maximal evoked responses, 30 µM – 300 µM): 10–20%; IC50 (RD curve) (WT α7 nAChR [8]; potency for producing long-lasting desensitization, 12 s applications): far greater than the concentration range studied; IC50 (α7 nAChR S36T mutant [14]): > 300 µM; recovery during post-control ACh applications after 5-minute incubation (WT α7 nAChR [16]; 30 µM drug bath, 5 minutes): fully recovered; post-control ACh responses, low versus high concentration incubation (WT α7 nAChR [16]; 4OHBA low 3 µM, high 30 µM): no significant difference; ACh control responses after 5-minute incubation (α7 nAChR S36G mutant [17]): nearly complete suppression of the ACh control responses; induction of Ds (response to PNU-120596 after drug bath) (WT α7 nAChR [15]; 30 µM drug bath, 5 minutes, 30 µM PNU-120596): relatively little Ds
